Measurements as given in patent publication US20110124523A1, “High Throughput Method for Detecting Apoptosis of Embryonic Stages of Metazoan Helminthic Parasites” (INSTITUTE OF LIFE SCIENCES, priority 2009, published 2011).
Values joined by “and” are separate entries in the source; they are usually repeats but may differ in a detail not shown here. Equal entries are not always repeated.

Legend:
[1] = test system: embryonic stages of S. digitata; experiment: Intra cellular expression of CED-9 protein, flow cytometry; assay type: cell-based, Setaria digitata; conditions: 24 hr
Method: (§1) Adult female filarial worms Setaria digitata were collected from the peritoneum of cattle, slaughtered at a nearby abattoir in sterile Hanks Balanced Salt Solution (HBSS) medium (Sigma H 2387-1L) and transported to the laboratory in a sterile container. The medium containing 1% glucose (Sigma G 7528), Penicillin 100 units/ml, Streptomycin 100 μg/ml (Sigma P 4333). And Amphotericin-B 0.25 μg/ml (Sigma A 2942) was buffered with NaHCO3 (Sigma S 5761). About 5 to 7 worms were taken in a petridish, washed three times in medium, dissected into small pieces in 10 ml of medium under sterile conditions and incubated at 37° C. for 30 minutes to allow the release of embryonic stages (eggs and microfilariae) into the medium. The embryonic stages were harvested into sterile 15 ml. centrifuge tubes and washed three times by centrifuging at 300 g for 10 minutes each with medium and the final pellet was suspended in 1 ml. of RPMI-1640 medium (Sigma R 8005) supplemented with 10% FBS (Sigma F 2442) The number of embryonic stages of S. digitata in the above preparation were counted using light microscope, and the suspension was taken in RPMI-1640 medium containing 10% FBS at 1×10^5 embryonic stages/ml. One ml. each was dispensed into individual wells of a 24 well tissue culture plate. One set of wells was taken as untreated control containing only medium with 10% FBS. […] Motility of the Mf was scored under an inverted microscope. After appropriate treatment and incubation, each set of the cultured embryonic stages of S. digitata were harvested from the 24 well tissue culture plate separately in 15 ml. sterile centrifuge tubes, washed with PBS twice and stained as per requirement following manufacturer's instructions as described below. This was followed by two times washing with PBS and final suspension of the stained embryonic stages was taken in 0.5 ml of sheath fluid (BD Biosciences 342003) before their acquisition in the flow cytometer (BD FACS Calibur, Becten and Dickinson, USA). Analysis was performed on 10,000-acquired events depicted as Dot Plots and Histogram Plots using Cellquest Pro soft ware. All plots were representative of at least 3 experiments. The distinctly clustered populations obtained consistently in the Dot plots for the intra uterine embryonic stages of S. digitata (FIG. 1 a) were gated for Mfs (R-1) and eggs (R-2 and R-3) and analyzed for different assays for apoptosis as described below. After in vitro culture for 24 hours with apoptosis inducing reagents the embryonic stages were harvested in 15 ml. sterile centrifuge tubes and fixed for 60 minutes at 0° C. in 1% paraformaldehyde (Sigma P 6148) in PBS. The suspension was washed first with PBS and then with 1× permeabilisation buffer (eBioscience 00-8333-56) and finally resuspended in 100 μl of 1× permeabilisation buffer at 1×10^5 embryonic stages per ml. The intracellular expression of CED-9 was scored by incubation of the fixed and permeabilised embryonic stages with primary goat antibodies—anti CED-9 (Santacruz sc-9202) followed by probing with PE conjugated secondary anti goat IgG-PE (Santacruz sc-3747) antibodies. Incubation of both primary and secondary antibodies (both 1/100 diluted) was done successively in 1× permeabilisation buffer (e Bioscience 00-8333-56) for 1 hr and 45 minutes respectively. The suspension of stained embryonic stages was then washed with PBS twice and finally reading was taken by flow cytometry or confocal microscopy.

[2] = test system: embryonic stages of S. digitata; experiment: Intra cellular cleavage of caspase substrate PARP, anti cleaved PARP-PE staining; assay type: cell-based, Setaria digitata; conditions: 24 hr
Method: as §1, with “This suspension was then incubated for 45 minutes with 20 μl” for “The intracellular expression”, “anti cleaved PARP-PE (BD Biosciences 552933). This” for “CED-9”, “was” for “was scored by incubation of the fixed and permeabilised embryonic stages with primary goat antibodies—anti CED-9 (Santacruz sc-9202)”, “washing” for “probing with PE conjugated secondary anti goat IgG-PE (Santacruz sc-3747) antibodies. Incubation of both primary and secondary antibodies (both 1/100 diluted) was done successively in 1× permeabilisation buffer (e Bioscience 00-8333-56) for 1 hr and 45 minutes respectively. The suspension of stained embryonic stages was then washed”, “analysis” for “finally reading was taken”, “Flow cytometer.” for “flow cytometry or confocal microscopy.”

| Compound | GMI (Geometric Mean Intensity) of Fluorescence, CED-9 Expression ([1]; Eggs, 10 μM) | GMI (Geometric Mean Intensity) of Fluorescence, CED-9 Expression ([1]; Microfilariae, 10 μM) | GMI (Geometric Mean Intensity) of Fluorescence, PARP Cleavage ([2]; Eggs, 10 μM) | GMI (Geometric Mean Intensity) of Fluorescence, PARP Cleavage ([2]; Microfilariae, 10 μM) | GMI (Geometric Mean Intensity) of Fluorescence, CED-9 Expression ([1]; Eggs, 1 μM) | GMI (Geometric Mean Intensity) of Fluorescence, CED-9 Expression ([1]; Microfilariae, 1 μM) | GMI (Geometric Mean Intensity) of Fluorescence, PARP Cleavage ([2]; Eggs, 1 μM) | GMI (Geometric Mean Intensity) of Fluorescence, PARP Cleavage ([2]; Microfilariae, 1 μM) |
| --- | --- | --- | --- | --- | --- | --- | --- | --- |
| CC1=CC(=O)c2c(O)cccc2C1=O [Plumbagin] | 206.36 and 202.92 and 205.16 | 30.96 and 33.25 and 32.27 | 102.15 and 109.36 and 110.25 | 10.01 and 11.32 and 9.67 | – | – | – | – |
| OO [H2O2] | 115.67 and 123.32 and 113.26 | 15.66 and 17.26 and 16.13 | 70.72 and 75.32 and 78.52 | 8.39 and 7.99 and 8.02 | – | – | – | – |
| CN[C@@H]1C[C@H]2O[C@@](C)([C@@H]1OC)n1c3ccccc3c3c4c(c5c6ccccc6n2c5c31)C(=O)NC4 [Staurosporine] | – | – | – | – | 106.36 and 109.16 and 107.34 | 10.32 and 9.56 and 11.02 | 63.95 and 66.56 and 70.27 | 6.57 and 6.21 and 5.49 |
